Measurements from ChEMBL document CHEMBL1122894, “Preparation of 20-(hydroxymethyl)-4-methyl-4-aza-2-oxa-5 alpha-pregnan-3-one as an inhibitor of testosterone 5 alpha-reductase” (J Med Chem, 1985).

Legend:
[1] = Compound was evaluated for in vitro inhibition of Testosterone 5 alpha-Reductase using substrate concentration 3 x 10e-7 M; design: species or system Rattus norvegicus
[2] = organism: Rattus norvegicus; assay: Comparative activity against Testosterone 5 alpha-Reductase evaluated by setting Ki of 7-(2-Hydroxy-1-methyl-ethyl)-1,4a,6a-trimethyl-hexadecahydro-indeno[5,4-f]quinolin-2-one at 1

Row | Ki [1] [nM] | Relative activity [2] | SMILES
1 | 3.8 | 1 | CC(CO)C1CCC2C3CC[C@H]4N(C)C(=O)CCC4(C)C3CCC12C (stereo not given in full)
2 | 400 |  | CC(CO)C1CCC2C3CC[C@H]4N(C)C(=S)OCC4(C)C3CCC12C (stereo not given in full)
3 | 120 |  | CC(CO)C1CCC2C3CC[C@H]4N(C)C(=O)OCC4(C)C3CCC12C (stereo not given in full)
4 | 7.3 |  | CCN(CC)C(=O)[C@H]1CC[C@H]2[C@@H]3CC[C@H]4N(C)C(=O)CC[C@]4(C)[C@H]3CC[C@]12C
